In PubChem BioAssay AID248 (DTP/NCI, 2004):
Several values for one entry are separate records, joined by “and”; a condition that tells them apart may be missing. Identical values can stand only once. Inconclusive results and toxic doses are left out. Rule as the data show it: active = T/C of 150% or more; inactive = T/C below 125%.

Tested on: L1210 leukemia ip in BDF1 mice, survival T/C
Assay: NCI In Vivo Anticancer Drug Screen. Data for tumor model L1210 Leukemia (intraperitoneal) in B6D2F1 (BDF1) mice
Conditions: endpoint: mean survival time, higher = longer survival
Outline: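 Ratio derived from survival: compound-dosed mice over vehicle-dosed mice, all bearing a transplantable tumor.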

[1] = dose: 100.0 mg/kg/injection, schedule: Q04DX002 (ip), vehicle: Klucel (hydroxypropylcellulose) (HPC)
[2] = dose: 100.0 mg/kg/injection, schedule: Q04DX002 (ip), vehicle: saline with Tween-80
[3] = dose: 100.0 mg/kg/injection, schedule: Q04DX003 (ip), vehicle: Klucel (hydroxypropylcellulose) (HPC)
[4] = dose: 200.0 mg/kg/injection, schedule: Q04DX002 (ip), vehicle: saline with Tween-80
[5] = dose: 200.0 mg/kg/injection, schedule: Q04DX003 (ip), vehicle: Klucel (hydroxypropylcellulose) (HPC)
[6] = dose: 400.0 mg/kg/injection, schedule: Q04DX002 (ip), vehicle: saline with Tween-80
[7] = dose: 400.0 mg/kg/injection, schedule: Q04DX003 (ip), vehicle: Klucel (hydroxypropylcellulose) (HPC)
[8] = dose: 100.0 mg/kg/injection, schedule: Q01DX009 (ip), vehicle: saline with Tween-80
[9] = dose: 200.0 mg/kg/injection, schedule: Q01DX009 (ip), vehicle: saline with Tween-80
[10] = dose: 100.0 mg/kg/injection, schedule: Q04DX003 (ip), vehicle: saline with Tween-80
[11] = dose: 200.0 mg/kg/injection, schedule: Q04DX003 (ip), vehicle: saline with Tween-80
[12] = dose: 100.0 mg/kg/injection, schedule: Q01DX001 (ip), vehicle: saline with Tween-80
[13] = dose: 200.0 mg/kg/injection, schedule: Q01DX001 (ip), vehicle: saline with Tween-80
[14] = dose: 400.0 mg/kg/injection, schedule: Q01DX001 (ip), vehicle: saline with Tween-80

Measured: T/C

OC(c1ccccc1)(c1ccccc1)C(O)(c1ccccc1)c1ccccc1
inactive: dose: 12.5 mg/kg/injection, schedule: Q04DX002 (ip), vehicle: Klucel (hydroxypropylcellulose) (HPC) 94 % of control | dose: 25.0 mg/kg/injection, schedule: Q04DX002 (ip), vehicle: Klucel (hydroxypropylcellulose) (HPC) 97 % of control and 122 % of control | dose: 50.0 mg/kg/injection, schedule: Q04DX002 (ip), vehicle: Klucel (hydroxypropylcellulose) (HPC) 115 % of control and 91 % of control | [1] 97 % of control | dose: 100.0 mg/kg/injection, schedule: Q04DX002 (ip), vehicle: gum acacia 92 % of control | [2] 102 % of control | [3] 96 % of control | dose: 200.0 mg/kg/injection, schedule: Q04DX002 (ip), vehicle: gum acacia 89 % of control | [4] 99 % of control | [5] 88 % of control | dose: 400.0 mg/kg/injection, schedule: Q04DX002 (ip), vehicle: gum acacia 95 % of control | [6] 99 % of control | [7] 95 % of control

CCCCCCCCCCCCCCCCOC(=O)C[n+]1ccc(C(N)=O)cc1
inactive: dose: 100.0 mg/kg/injection, schedule: Q04DX003 (ip), vehicle: acetone 97 % of control | dose: 200.0 mg/kg/injection, schedule: Q04DX003 (ip), vehicle: acetone 90 % of control

Nc1nc(C(=O)O)cc(=O)[nH]1
inactive: dose: 100.0 mg/kg/injection, schedule: Q01DX001 (ip), vehicle: carboxymethylcellulose (CMC) 103 % of control | dose: 200.0 mg/kg/injection, schedule: Q01DX001 (ip), vehicle: carboxymethylcellulose (CMC) 113 % of control | dose: 400.0 mg/kg/injection, schedule: Q01DX001 (ip), vehicle: carboxymethylcellulose (CMC) 96 % of control

Nc1cc2c3c(cccc3c1Br)C(=O)OC2=O
inactive: [1] 97 % of control | dose: 200.0 mg/kg/injection, schedule: Q04DX002 (ip), vehicle: Klucel (hydroxypropylcellulose) (HPC) 108 % of control

CC1CCC2=CC(=O)CCC2(C)C1C (stereo not given)
inactive: [8] 101 % of control | [9] 96 % of control | dose: 400.0 mg/kg/injection, schedule: Q01DX009 (ip), vehicle: saline with Tween-80 91 % of control

C(#CP(c1ccccc1)c1ccccc1)c1ccccc1
inactive: [3] 93 % of control | [5] 97 % of control | [7] 95 % of control

Cc1ccc(-c2c(O)c(Br)c(-c3ccc(C)cc3C)c(O)c2Br)c(C)c1
inactive: [10] 98 % of control | [11] 93 % of control | dose: 400.0 mg/kg/injection, schedule: Q04DX003 (ip), vehicle: saline with Tween-80 93 % of control

CCOc1ccc(C(=O)Nc2ccc(C3=NCCN3)cc2)cc1C(=O)Nc1ccc(C2=NCCN2)cc1
inactive: dose: 30.0 mg/kg/injection, schedule: Q01DX Z (oral), vehicle: saline 93 % of control | dose: 60.0 mg/kg/injection, schedule: Q01DX Z (oral), vehicle: saline 91 % of control | dose: 62.5 mg/kg/injection, schedule: Q01DX010 (oral), vehicle: saline 107 % of control | dose: 120.0 mg/kg/injection, schedule: Q01DX Z (oral), vehicle: saline 103 % of control | dose: 125.0 mg/kg/injection, schedule: Q01DX010 (oral), vehicle: saline 112 % of control | dose: 240.0 mg/kg/injection, schedule: Q01DX Z (oral), vehicle: saline 92 % of control | dose: 250.0 mg/kg/injection, schedule: Q01DX010 (oral), vehicle: saline 112 % of control | dose: 500.0 mg/kg/injection, schedule: Q01DX010 (oral), vehicle: saline 106 % of control

Cc1ncc(C(=O)O)c2c1OC(C)(C)OC2
inactive: dose: 50.0 mg/kg/injection, schedule: Q01DX001 (ip), vehicle: saline 100 % of control | dose: 100.0 mg/kg/injection, schedule: Q01DX001 (ip), vehicle: saline 91 % of control | dose: 200.0 mg/kg/injection, schedule: Q01DX001 (ip), vehicle: saline 100 % of control | dose: 400.0 mg/kg/injection, schedule: Q01DX001 (ip), vehicle: saline 94 % of control

C=C1CC(C)(c2ccc(CCCC(=O)OCC)cc2)OC1=O (stereo not given)
inactive: dose: 50.0 mg/kg/injection, schedule: Q01DX009 (ip), vehicle: saline with Tween-80 102 % of control | [8] 102 % of control | [10] 103 % of control | [9] 88 % of control | [11] 97 % of control

C=C(C)C1(CC(C)C)C(=O)NC(=S)NC1=O
inactive: dose: 9.5 mg/kg/injection, schedule: Q01DX001 (ip), vehicle: other 100 % of control | dose: 19.0 mg/kg/injection, schedule: Q01DX001 (ip), vehicle: other 96 % of control | dose: 38.0 mg/kg/injection, schedule: Q01DX001 (ip), vehicle: other 96 % of control

CSc1ccc(NC(=O)c2ccc(Cl)cc2Cl)cc1
inactive: [12] 89 % of control | dose: 100.0 mg/kg/injection, schedule: Q01DX009 (ip), vehicle: saline + alcohol 95 % of control and 108 % of control | [2] 96 % of control and 108 % of control | [13] 89 % of control | dose: 200.0 mg/kg/injection, schedule: Q01DX009 (ip), vehicle: saline + alcohol 97 % of control and 106 % of control | [4] 93 % of control and 97 % of control | [14] 90 % of control | [6] 93 % of control and 97 % of control

Cc1ccc(S(=O)(=O)N(c2ccc(I)cc2F)S(=O)(=O)c2ccc(C)cc2)cc1
inactive: [3] 98 % of control | [5] 97 % of control | [7] 108 % of control

CCCN(CCC)CCCC#N
inactive: [10] 95 % of control | [11] 93 % of control

CCC[As](=O)(O)CCCc1ccccc1
inactive: dose: 0.78 mg/kg/injection, schedule: Q01DX009 (ip), vehicle: Klucel (hydroxypropylcellulose) (HPC) 100 % of control | dose: 1.56 mg/kg/injection, schedule: Q01DX009 (ip), vehicle: Klucel (hydroxypropylcellulose) (HPC) 87 % of control | dose: 3.13 mg/kg/injection, schedule: Q01DX009 (ip), vehicle: Klucel (hydroxypropylcellulose) (HPC) 101 % of control

OC1CCc2c(Cl)sc(Cl)c21 (stereo not given)
inactive: [14] 98 % of control

CCn1c(C)nccc1=O
inactive: dose: 37.5 mg/kg/injection, schedule: Q01DX001 (ip), vehicle: saline 101 % of control | dose: 75.0 mg/kg/injection, schedule: Q01DX001 (ip), vehicle: saline 101 % of control | dose: 150.0 mg/kg/injection, schedule: Q01DX001 (ip), vehicle: saline 100 % of control

O=C1CSC(=O)N1c1ccccc1
inactive: [12] 107 % of control | dose: 100.0 mg/kg/injection, schedule: Q04DX003 (ip), vehicle: saline 93 % of control | [13] 94 % of control | dose: 200.0 mg/kg/injection, schedule: Q04DX003 (ip), vehicle: saline 100 % of control | [14] 98 % of control | dose: 400.0 mg/kg/injection, schedule: Q04DX003 (ip), vehicle: saline 89 % of control
